Source: patent US12195557B2, “Optimised compounds” (AXELIA ONCOLOGY PTY LTD, priority 2017, dated 2025)
Where “and” joins values, the source holds several entries; their conditions need not be identical. Identical values can stand only once. Entries after “also recorded” stand apart in the source; their conditions may differ. Like-named read-outs stand apart in the source and are kept apart here.

Columns and labels:
[1] = system: TLR-2; experiment: TLR panel, NF-κB inducible SEAP reporter in HEK293 cells: TLR-2; format: cell-based, human and mouse
Description: INNA-006 was assessed for its ability to activate a range of other TLR pattern recognition receptors. These assessments were conducted using both human and mouse TLR panels. These assays detect a secreted embryonic alkaline phosphatase (SEAP) reporter under the control of a promoter which is inducible by NF-κB activation in HEK293 cells. The secreted embryonic alkaline phosphatase (SEAP) reporter is under the control of a promoter inducible by the transcription factor NF-κB. This reporter gene allows the monitoring of signaling through the TLR, based on the activation of NF-κB. In a 96-well plate (200 μL total volume) containing the appropriate cells (50,000-75,000 cells/well), 20 μL of the test article or the positive control ligand is added to the wells. The media added to the wells is designed for the detection of NF-κB induced SEAP expression. After a 16-24 hr incubation the optical density (OD) is read at 650 nm on a Molecular Devices SpectraMax 340PC absorbance detector. • hTLR2: HKLM (heat-killed Listeria monocytogenes) at 1×10^8 cells/mL • hTLR3: Poly(I:C) HMW at 1 μg/mL • hTLR4: E. coli K12 LPS at 100 ng/mL • hTLR5: S. typhimurium flagellin at 100 ng/mL • hTLR7: CL307 at 1 μg/mL • hTLR8: CL075 at 1 μg/mL • hTLR9: CpG ODN2006 at 1 μg/mL.

[2] = system: cytokines/chemokines (IL-6, KC, MCP-1, RANTES); experiment: Cytokine/chemokine levels in nasal turbinates, trachea, lungs and sera (cytometric bead array); format: in vivo, C57BL/6 mice
[3] = in vitro; conditions: human, hepatocytes
[4] = Size exclusion chromatography and LC-MS analysis of micelle aggregates; format: physicochemical; conditions: INNA-006 at 0.3 mg/ml in PBS; INNA-011 at 0.4 mg/ml in saline
Description: INNA-011 and INNA-006 form micelle-type aggregates in both aqueous and organic solutions. The size distribution and polydispersity of particles of INNA-006 and INNA-011 were determined by dynamic light scattering (DLS) and size exclusion chromatography (University of Melbourne). […] This corresponds to the assembly in a micelle formation of about 266 individual INNA-006 molecules. Using size exclusion chromatography and LC-MS analysis, it was determined that INNA-011 at 0.4 mg/ml is present in saline solution as a single uniform species with a Stoke's radius of ˜7.3 nm and a molecular weight of ˜566,000. This corresponds to the assembly in a micelle formation of about 267 individual INNA-011 molecules.

[5] = in vitro; conditions: dog, hepatocytes
[6] = system: A/Udorn/307/72 (H3N2) influenza virus; format: in vivo, C57BL/6 mice
[7] = in vitro; conditions: rat, hepatocytes
[8] = in vitro; conditions: rat, rat plasma
[9] = target: T1, human TLR2 (Homo sapiens, UniProt O60603); experiment: NF-kB activation in HEKBlue-hTLR2 cell line (SEAP reporter); format: cell-based
T1 construct: host or cells: HEK-Blue hTLR2 (HEK293-derived) cell line
Description: The potency of the compounds as activators of human and mouse TLR-2s was tested in an in vitro assay. The assay assesses NF-kB activation in the HEKBlue-mTLR-2 cell line. These cells have been stably transfected with mouse TLR-2 and express TLR-1 and TLR-6 endogenously at sufficient levels to allow for fully-functional TLR-1/2 and TLR-2/6 activation.
Toll-Like Receptor 2 (TLR2) stimulation is tested by assessing NF-kB activation in the HEKBlue-hTLR2 cell line. These cells have been stably transfected with human TLR2 and express TLR1 and TLR6 endogenously at a level sufficient to allow for fully-functional TLR1/2 and TLR2/6 activation. The activity of the test articles are tested on human TLR2 as potential agonists. The test articles are evaluated at seven concentrations and compared to control ligands. These steps are performed in triplicate.
Toll-Like Receptor 2 (TLR2) stimulation was tested by assessing N-kB activation in the HEK-Blue hTLR2 cell line. These cells have been stably transfected with human TLR2 and express TLR1 and TLR6 endogenously at a level sufficient to allow for fully-functional TLR1/2 and TLR2/6 activation. The activity of the test articles were tested on human TLR2 as potential agonists. The test articles were evaluated at seven concentrations and compared to control ligands (see list below). These steps were performed in triplicate.
The secreted embryonic alkaline phosphatase (SEAP) reporter is under the control of a promoter inducible by the transcription factor NF-κB. This reporter gene allows the monitoring of signaling through the TLR, based on the activation of NF-κB. In a 96-well plate (200 μL total volume) containing the appropriate cells (50,000-75,000 cells/well), 20 μL of the test article or the positive control ligand is added to the wells. The media added to the wells is designed for the detection of NF-κB induced SEAP expression. After a 20 hour incubation the optical density (OD) is read at 650 nm on a Molecular Devices SpectraMax 340PC absorbance detector.

[10] = 3-dose regime, 0.5 and 0.05 nmole doses

T1 sequence (O60603 21-784): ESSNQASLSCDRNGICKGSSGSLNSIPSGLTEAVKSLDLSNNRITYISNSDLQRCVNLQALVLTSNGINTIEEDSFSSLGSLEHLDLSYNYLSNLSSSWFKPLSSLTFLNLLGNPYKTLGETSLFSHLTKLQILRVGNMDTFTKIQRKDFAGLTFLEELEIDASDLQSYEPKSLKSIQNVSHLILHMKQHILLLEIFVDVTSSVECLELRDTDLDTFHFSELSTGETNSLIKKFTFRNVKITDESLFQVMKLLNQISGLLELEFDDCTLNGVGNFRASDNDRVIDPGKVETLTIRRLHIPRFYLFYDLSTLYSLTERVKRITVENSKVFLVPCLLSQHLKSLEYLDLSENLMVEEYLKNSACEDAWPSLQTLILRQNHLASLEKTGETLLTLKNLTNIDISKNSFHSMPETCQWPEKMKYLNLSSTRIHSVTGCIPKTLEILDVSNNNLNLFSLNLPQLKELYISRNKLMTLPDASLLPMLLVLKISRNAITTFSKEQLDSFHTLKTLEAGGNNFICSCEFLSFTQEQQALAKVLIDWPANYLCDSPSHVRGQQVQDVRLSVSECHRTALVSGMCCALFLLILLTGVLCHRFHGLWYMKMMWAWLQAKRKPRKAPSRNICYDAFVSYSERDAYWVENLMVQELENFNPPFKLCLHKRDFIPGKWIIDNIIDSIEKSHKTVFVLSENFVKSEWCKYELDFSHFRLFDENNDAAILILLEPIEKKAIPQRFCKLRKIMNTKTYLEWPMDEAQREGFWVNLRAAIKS
T1 sequence (Q9Y2C9 32-796 partner): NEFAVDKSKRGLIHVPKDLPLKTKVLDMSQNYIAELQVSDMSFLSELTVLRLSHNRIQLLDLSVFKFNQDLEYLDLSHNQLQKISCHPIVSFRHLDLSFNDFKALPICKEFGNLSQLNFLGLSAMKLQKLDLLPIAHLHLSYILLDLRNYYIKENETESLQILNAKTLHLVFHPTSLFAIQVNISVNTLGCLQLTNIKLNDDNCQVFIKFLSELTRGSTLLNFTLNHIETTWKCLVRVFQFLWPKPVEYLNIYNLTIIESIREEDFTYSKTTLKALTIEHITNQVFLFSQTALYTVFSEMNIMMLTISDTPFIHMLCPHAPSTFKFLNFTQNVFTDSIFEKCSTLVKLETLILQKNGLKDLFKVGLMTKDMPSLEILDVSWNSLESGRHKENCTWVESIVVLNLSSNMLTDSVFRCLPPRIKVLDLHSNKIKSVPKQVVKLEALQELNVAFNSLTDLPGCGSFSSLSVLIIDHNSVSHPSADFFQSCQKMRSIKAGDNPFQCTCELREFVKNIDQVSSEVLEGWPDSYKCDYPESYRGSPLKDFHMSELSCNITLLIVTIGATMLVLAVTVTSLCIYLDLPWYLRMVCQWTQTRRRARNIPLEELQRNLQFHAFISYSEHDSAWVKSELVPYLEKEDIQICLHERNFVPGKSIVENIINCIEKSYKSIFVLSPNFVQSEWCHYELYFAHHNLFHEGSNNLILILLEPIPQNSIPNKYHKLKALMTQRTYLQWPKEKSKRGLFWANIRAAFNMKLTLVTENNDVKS

Structure (SMILES): CCC(=O)OCC(CSCC(N)C(=O)NC(CO)C(=O)NCCOCC(=O)NCC(N)=O)OC(=O)CC (stereo not drawn) [INNA-006, Pam2Cys-Ser-PEG]
- TLR-2 activation [1]: specific TLR-2 activation; also recorded: able to activate
- fold lower IL-6 in nasal turbinates, 3 doses compared to single dose ([2]; 0.5 nmoles): approximately 25 fold
- cytokine/chemokine levels in nasal turbinates, lungs and sera, 3 repeat doses compared to single dose ([2]; 0.5 or 0.05 nmoles): marked decrease in cytokine/chemokine levels
- level of KC in lungs ([2]; 3-dose regime (both 0.5 and 0.05 nmole doses)): ~14 pg/mL and ~16.3 pg/mL
- fold increase of KC secretion in lungs compared to INNA-003 [2, 10]: 2 fold
- fold increase of KC secretion in lungs compared to saline control [2, 10]: 3 fold
- level of IL-6 in nasal turbinates ([2]; 3 doses (0.5 nmoles), 24 hours after last dose): 15 pg/mL
- fold increase of KC in nasal turbinates versus saline ([2]; mouse, in vivo): 2 fold
- level of KC in nasal turbinates ([2]; mouse, in vivo): ~83 pg/mL
- inflammatory cytokines after pre-treatment and Udorn challenge ([2]; pre-treatment with up to three doses followed by challenge): no detectable change in any of the inflammatory cytokines measured
- KC in the lungs compared to saline control ([2]; single dose): no significance
- RANTES in nasal turbinates compared to INNA-003 ([2]; single dose 0.5 nmoles): increased RANTES secretion
- fold increase in IL-6 levels in nasal turbinates versus saline ([2]; single dose 0.5 nmoles): 98 fold
- level of IL-6 in nasal turbinates ([2]; single dose (0.5 nmoles), 24 hours after dose): ~395 pg/mL
- cytokine/chemokine profile in nasal turbinates compared to saline (IL-6, KC & MCP-1) ([2]; single or 3 repeat doses, 0.5 or 0.05 nmoles, dose-dependent): increase in proinflammatory cytokines and chemokines
- half-life at 0.5 μM [3]: > 6.25 h
- hepatocyte CLint at 0.5 μM [3]: < 2 µL/min/1e6 cells
- Stokes radius [4]: ~6.3 nm
- individual molecules assembled in a micelle formation [4]: about 266 molecules
- molecular weight of micelle species [4]: ~377,000
- half-life at 0.5 μM [5]: > 6.25 h
- hepatocyte CLint at 0.5 μM [5]: < 2 µL/min/1e6 cells
- progression of influenza virus to the lungs (lung viral titre) ([6]; 0.005 nmoles intranasal 1 day prior to 500 pfu Udorn challenge, n=5, day 5 (Example 4)): partial inhibition
- progression of influenza virus to the lungs (lung viral titre) ([6]; 0.05 nmoles intranasal 1 day prior to challenge, n=10 (Example 5)): partial inhibition
- progression of influenza virus to the lungs (lung viral titre) ([6]; 0.1 nmoles intranasal 1 day prior to 500 pfu Udorn challenge, n=5, day 5 (Example 4)): significantly inhibited
- progression of influenza virus to the lungs (lung viral titre) ([6]; 0.5 nmoles intranasal 1 day prior to challenge, n=10 (Example 5)): significantly inhibited
- progression of influenza virus to the lungs (lung viral titre) ([6]; 5 nmoles intranasal 1 day prior to 500 pfu Udorn challenge, n=5, day 5 (Example 4)): significantly inhibited
- progression of influenza virus to the lungs (lung viral titre) ([6]; 5 nmoles intranasal 1 day prior to challenge, n=10 (Example 5)): significantly inhibited
- times more effective than INNA-003 at inhibiting viral progression ([6]; 3 doses of 0.5 nmoles (Example 7, FIG. 10)): 10-100 times
- progression of influenza virus to the lungs (lung viral titre) ([6]; 3 doses of 0.5 nmoles (days 0, 2, 4), challenge one day after third dose (Example 7)): major reduction in viral load in the lungs; also recorded: significant reduction in dissemination of virus to lungs; also recorded: significantly inhibited
- times more effective than INNA-003 or Pam2Cys-SK4 at inhibiting viral progression ([6]; single dose 1 day prior to challenge (Example 4)): 10-100 times
- half-life at 0.5 μM [7]: > 6.25 h
- hepatocyte CLint at 0.5 μM [7]: < 2 µL/min/1e6 cells
- half-life [8]: 5.7 h
- TLR2 activation, potency in words ([9]; Example 2): significantly more potent than INNA-003
- EC50 ([9]; agonist activity against Human TLR-2 in vitro): 7.7 pM
